# Experimental data taken from PubChem BioAssay AID1508610 (The Scripps Research Institute Molecular Screening Center, 2020).
# Calls of active or inactive are those of the source. No rule for the calls is given here.
# Target: G-protein coupled receptor 151 (Homo sapiens) (UniProt Q8TDV0)
# Assay: GPR151 activator potency, dose response, cell-based (AID 1508610)
# Details: cell-based GPR151 activation reporter
# G-protein coupled receptor 151 (Homo sapiens), sequence (Q8TDV0 whole entry, looked up): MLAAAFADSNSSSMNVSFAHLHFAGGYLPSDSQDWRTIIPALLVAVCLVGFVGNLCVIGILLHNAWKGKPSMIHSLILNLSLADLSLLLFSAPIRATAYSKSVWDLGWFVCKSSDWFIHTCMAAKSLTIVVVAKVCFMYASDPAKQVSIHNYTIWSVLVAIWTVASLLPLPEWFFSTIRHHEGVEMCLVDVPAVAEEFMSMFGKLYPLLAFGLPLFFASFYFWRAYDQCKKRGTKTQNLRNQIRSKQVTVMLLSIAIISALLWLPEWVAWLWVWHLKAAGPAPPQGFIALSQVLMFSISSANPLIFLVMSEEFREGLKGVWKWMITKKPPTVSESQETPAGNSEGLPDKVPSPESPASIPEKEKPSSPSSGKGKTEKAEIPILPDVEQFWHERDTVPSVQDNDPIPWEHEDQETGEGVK
row,SMILES,EC50
1,Cc1nc2nc(SCC(=O)N3CCOCC3)nn2c(C)c1Cc1ccccc1,> 28 µM (inactive)
2,S=c1nc2c(n[nH]1)c1ccccc1n2CCc1ccccc1,> 33 µM (inactive)
3,Cc1ccc2nc(NC(=O)C34CC5CC(C3)CC(n3cnc([N+](=O)[O-])n3)(C5)C4)sc2c1,> 28 µM (inactive)
4,CCC1CN(CCNC(=O)CC2CCCC2)Cc2cc(OC)ccc2O1 (configuration not stated),> 28 µM (inactive)
5,CCNc1nc(OC(C(F)(F)F)C(F)(F)F)nc(N2CCCCC2)n1,> 28 µM (inactive)
6,COc1cccc(-c2ccc(SCC(=O)Nc3ccc4c(c3)OCCO4)nn2)c1,> 28.7 µM (inactive)
7,COc1ccc(-c2ccc(C(=O)Nc3ccc(NC(C)=O)cc3)s2)cc1,> 26.6 µM (inactive)
8,CCOc1ccc(C(=O)N2CCC(c3ncncc3-c3ccncc3)CC2)o1,> 28 µM (inactive)
9,COc1cc(Br)ccc1OCC(=O)N/N=C/c1ccc([N+](=O)[O-])cc1,> 28 µM (inactive)
10,O=C(CCCOc1ccccc1)NNC(=O)c1ccccc1,> 30.1 µM (inactive)
11,CN1CCN(c2ccc(/C=C(\C#N)C(N)=O)cc2[N+](=O)[O-])CC1,> 28 µM (inactive)
12,CCN(CC(=O)NC1CCCCCC1)S(=O)(=O)c1ccc(C)cc1,> 28 µM (inactive)
13,CC(=O)Nc1ccc(NC(=O)c2ccc3nc(Nc4ccccn4)sc3c2)cc1,> 28 µM (inactive)
14,COc1ccc(-c2ccc(C(N)=O)s2)cc1,> 28.1 µM (inactive)
15,O=C(Nc1ccc(Oc2cc3ccccc3cc2Cl)c(Cl)c1)c1cc(Br)cc(Br)c1O,> 17.2 µM (inactive)
16,COc1ccc(C2C=C(c3ccc(Cl)cc3)Nc3nc(CCCO)nn32)cc1 (configuration not stated),inactive
17,Cc1nn(-c2ccccc2)c(Cl)c1/C=N\O,> 28 µM (inactive)
18,O=C(COc1ccc(Cl)cc1Cl)Nc1ncn[nH]1,> 28 µM (inactive)
19,Nc1nc2n(n1)C(c1ccccc1Cl)CC(c1ccc(F)cc1)N2 (configuration not stated),> 28 µM (inactive)
20,CC(C)N1CCC(=NNC(=O)c2ccc(C(C)(C)C)cc2)CC1,> 28 µM (inactive)
21,NC(=O)/C(=C\c1ccco1)NC(=O)c1ccccc1Br,> 28 µM (inactive)
22,COc1ccc(NC(=O)C2C3CCC(C3=C(C)C)C2C(=O)O)cc1 (configuration not stated),> 28 µM (inactive)
23,Nc1ncc(Br)cc1S(=O)(=O)N1CCN(C2CCCCC2)CC1,> 28 µM (inactive)
24,Cc1ccc(C(=O)Nc2nc(Cl)c(C#N)s2)cc1,> 28.2 µM (inactive)
25,Cn1c(N)c(S(=O)(=O)N2CCN(c3ccccc3Cl)CC2)c(=O)n(C)c1=O,> 28.4 µM (inactive)

row,SMILES,EC50
1,COc1ccc(-c2nc(C(=O)N3CCN(C)CC3)sc2-c2ccc(OC)cc2)cc1,> 11.2 µM (inactive)
2,COc1ccccc1C(=O)Nc1nc2ccccc2s1,> 26.2 µM (inactive)
3,CCOc1ccc(-n2c(SCC(=O)Nc3ccccc3CC)nc3n[nH]c(C)c3c2=N)cc1,> 27.1 µM (inactive)
4,COc1cccc(-c2nnc3n2N=C(c2cccc([N+](=O)[O-])c2)CS3)c1,> 28 µM (inactive)
5,CC(=O)c1c(C)[nH]c(C(=O)N2CCN(c3ccccc3)CC2)c1C,> 28 µM (inactive)
6,O=C1CC(C(=O)N2CCCC(c3[nH]ncc3-c3ccccc3)C2)c2ccccc21 (configuration not stated),> 28 µM (inactive)
7,CCOc1ccc(-c2csc(/C(C#N)=C/c3ccccc3OCC)n2)cc1,> 25.5 µM (inactive)
8,Cc1cc(-n2c(SCC(=O)NCc3ccco3)nc3n[nH]c(C)c3c2=N)ccc1Cl,> 24.4 µM (inactive)
9,Cc1ccc(-c2cnn(-c3ccc(C(=O)O)cc3)c2)cc1,> 28 µM (inactive)
10,COc1ccccc1N1CCN(C(=O)c2cnc(N3CCN(c4ncccn4)CC3)c3ccccc23)CC1,> 20.1 µM (inactive)
11,O=C(O)c1ccc(/C=C2\SC(=S)N(CCS(=O)(=O)O)C2=O)cc1,> 28.5 µM (inactive)
12,Cc1c(C(=O)NCc2ccco2)oc2ccc(S(=O)(=O)N(C)C3CCCCC3)cc12,> 28 µM (inactive)
13,Cc1ccc2nc(NC(=O)C3=COCCO3)sc2c1,> 28.4 µM (inactive)
14,COCCNC(=O)/C(C#N)=C/C=C/c1ccccc1,> 30.6 µM (inactive)
15,O=C(O)CCn1cc(C=C2C(=O)NC(=O)NC2=O)c(-c2ccc(Br)cc2)n1,> 28 µM (inactive)
16,Cc1ccc(Oc2nc3ccccn3c(=O)c2/C=C(\C#N)C(N)=O)c(C)c1,> 28 µM (inactive)
17,COc1ccc(C(=O)Nc2ccc(-n3nncc3C(C)(C)C)cc2)cc1,> 31.7 µM (inactive)
18,COc1ccc(C(=O)N/N=C/c2ccc(O)cc2O)cc1OC,> 28 µM (inactive)
19,CCN(CC)S(=O)(=O)c1ccc(C(=O)Nc2nnc(C(C)C)s2)cc1,> 23.9 µM (inactive)
20,COc1ccc(-n2nc3c(c2NC(=O)c2c(F)cccc2F)CS(=O)(=O)C3)cc1,> 31.2 µM (inactive)
21,CCCNC(=O)c1ccc(-c2ccc(N3CCOCC3)nc2)s1,> 28.1 µM (inactive)
22,Cc1cccc(C)c1-n1c(=S)sc2c(=O)n(-c3cccc(Cl)c3)c(SCC#N)nc21,> 21.8 µM (inactive)
23,CCCOc1ccc(NC(=O)C2CC(=O)N(CC)C(=Nc3ccc(C)c(C)c3)S2)cc1 (configuration not stated),> 26.4 µM (inactive)
24,CCC(C(=O)OC)n1cnc2scc(-c3cccc([N+](=O)[O-])c3)c2c1=O (configuration not stated),> 28 µM (inactive)
25,Cn1c(=O)oc2cc(S(=O)(=O)N3CCCC(C(=O)N4CCOCC4)C3)ccc21 (configuration not stated),> 28 µM (inactive)

row,SMILES,EC50
1,O=C(O)C1CCCN(c2nn3cc(-c4ccc(F)cc4)nc3s2)C1 (configuration not stated),> 28 µM (inactive)
2,CC[C@@H](C(=O)[C@@H](C)[C@@H](O)[C@H](C)CCc1ccc(C)c(O)c1C(=O)O)[C@H]1O[C@](CC)([C@H]2CC[C@](O)(CC)[C@H](C)O2)C[C@@H]1C,> 28 µM (inactive)
3,O=C(O)c1cccc(COc2ccc3ccccc3c2)c1,> 28 µM (inactive)
4,C/C(=N\NC(=O)Cn1nnc(-c2ccccc2)n1)c1nonc1C,> 28 µM (inactive)
5,CC1(C)Cc2c(C#N)c(N3CCCC3)nc(-c3ccco3)c2CO1,> 28 µM (inactive)
6,Cc1cc2c(cc1C)C(c1cc([N+](=O)[O-])ccc1Cl)CC(=O)N2 (configuration not stated),> 33.6 µM (inactive)
7,COc1ccc(N2CCN(C3CC(=O)NC3=O)CC2)cc1 (configuration not stated),> 28 µM (inactive)
8,COc1ccc(-c2ccc(C(=O)Nc3ccccc3)s2)cn1,> 28 µM (inactive)
9,COC(=O)c1ccc(Cl)cc1NC(=O)N(C(C)C)C1CCN(C(C)=O)CC1,> 28 µM (inactive)
10,Cc1ccc(N(CC(=O)NCCC2=CCCCC2)S(C)(=O)=O)cc1Cl,> 28 µM (inactive)
11,Cc1csc2ncc(C(=O)N3CCc4ccccc43)c(=O)n12,> 28 µM (inactive)
12,NC(=O)C1CCN(C(=O)c2ccc3nc(N4CCCCC4)sc3c2)CC1,> 28 µM (inactive)
13,CC(c1ccccc1)C1CC(=O)N(Cc2ccccc2)C1=O (configuration not stated),> 32.4 µM (inactive)
14,COc1cc(CNc2ccc3ncc(-c4cnn(C)c4)n3n2)cc(OC)c1OC,> 28 µM (inactive)
15,CC(C)c1ccc(Cn2ccc3c4c(N)nc(NC5CC5)nc4ccc32)cc1,3.86 µM
16,COc1ccc(/C=N/NC(=O)COc2cccc(C)c2)cc1O,> 28 µM (inactive)
17,OC1CCN(Cc2ccc3c(c2)CN(CC2CC=CCC2)CCO3)CC1 (configuration not stated),> 28 µM (inactive)
18,Cc1c(N=Nc2c(O)[nH]c(=S)[nH]c2=O)c(=O)n(-c2ccccc2)n1C,> 28 µM (inactive)
19,CCN(CC)C(=O)c1cn(CCC#N)nc1-c1ccc(OC)c([N+](=O)[O-])c1,> 28 µM (inactive)
20,c1ccc(Oc2nc(NC3CC3)c3ncn(-c4ccsc4)c3n2)cc1,inactive
21,COc1cc(N)c(Cl)cc1C(=O)OCCOc1ccc(Br)cc1,> 30.8 µM (inactive)
22,CCOc1cc(/C=c2/sc3n(c2=O)CCN=3)ccc1O,> 40 µM (inactive)
23,COc1ncc(-c2cncc(-c3cccc(O)c3)n2)c(OC)n1,> 28 µM (inactive)
24,COC(=O)c1c(NC(=O)/C=C\C(=O)O)sc(C)c1C,> 28 µM (inactive)
25,Cc1ccccc1C(=O)Nc1noc2ccccc12,> 28 µM (inactive)

row,SMILES,EC50
1,CC(C)N(CCNc1nc(N2CCC(N3CCOCC3)CC2)nc2c1ncn2C1CCCCC1)C(C)C,> 29.5 µM (inactive)
2,COc1cccc(Nc2nc(Nc3cc(C)ccc3C)nc(N3CCOCC3)n2)c1,> 26.2 µM (inactive)
3,N=C1c2ccccc2CN1CC(=O)c1ccccc1,> 27.4 µM (inactive)
4,COCCNCCOc1ccc(C)cc1C,> 28 µM (inactive)
5,Cc1ccc2nc(-c3ccc(O)cc3)[nH]c2c1,> 28 µM (inactive)
6,CCSCCOC(=O)C1=C(C)NC(=O)NC1c1ccc(OC(F)(F)F)cc1 (configuration not stated),> 22.5 µM (inactive)
7,CCC(C)OC(=O)C1=C(C)NC2=C(C(=O)CC(c3ccc(OC)cc3)C2)C1c1cc(OC)c(OC)cc1Br (configuration not stated),> 22.4 µM (inactive)
8,CCOc1ccc(S(=O)(=O)N(CC(=O)NCCSc2ccccc2)c2ccccc2)cc1,> 26.6 µM (inactive)
9,CCOC(=O)C1=C(C)N=c2s/c(=C\c3ccc(-c4ccccc4C(=O)O)o3)c(=O)n2C1c1ccccc1OC (configuration not stated),> 25.1 µM (inactive)
10,N#C/C(=C\c1cc(Cl)ccc1O)c1nc2ccccc2[nH]1,> 28 µM (inactive)
11,O=S(=O)(O)c1ccc2nc(-c3ccccc3)[nH]c2c1,> 28 µM (inactive)
12,CCc1ccccc1N(CC(=O)Nc1ccccc1Cl)S(C)(=O)=O,0.00153 µM
13,O=C1NC(=O)C(=Cc2cc(Br)ccc2OCc2ccccc2F)C(=O)N1,> 28 µM (inactive)
14,Cc1ccc(S(=O)(=O)N(CC(O)Cn2nc(C)cc2C)c2cccc([N+](=O)[O-])c2)cc1 (configuration not stated),> 28 µM (inactive)
15,COc1cccc(/C=N/NC(=O)C(C)Nc2ccc(C)cc2)c1O (configuration not stated),> 28 µM (inactive)
16,CC[n+]1c(/C=C2\Sc3ccc(C)cc3N2CCO)ccc2ccccc21,inactive
17,CC1=NCCc2c1[nH]c1cc(O)ccc21,> 28 µM (inactive)
18,COc1ccc(Cn2nccc2N)cc1OC,> 28.8 µM (inactive)
19,O=C(Nc1ncc([N+](=O)[O-])s1)c1ccc(Cl)cc1Cl,> 27.3 µM (inactive)
20,COc1ccc(CCNc2ccnc(Nc3ccc(-n4ccnc4)cc3)n2)cc1,inactive
21,Cc1cn2c(=O)c(C(=O)NOCc3cccc(C(F)(F)F)c3)cnc2s1,> 28 µM (inactive)
22,COc1ccc(CCNc2cc(C)nc(Nc3ccc(-n4ccnc4)cc3)n2)cc1,1.17 µM
